What all share (format): cell-based
One experiment has as its system XBP-1 protein. The experiment in a line: XBP-1 protein species in MOPC315 and MM.1S myeloma cells treated with proteasome inhibitors (Western blot). To be noted: mouse myeloma MOPC315 and human myeloma MM.1S. As for the experimental part:
A variety of reversible and irreversible inhibitors that inhibit degradation of proteins by the ubiquitin-proteasome pathway have recently been identified. Proteasome inhibitors MG132 and PS341 block the rapid degradation of ubiquitinated proteins such as unspliced, but not spliced XBP-1. Myeloma cells express primarily spliced XBP-1 protein as expected. […] In this experiment lysates from MOPC315 cells were untreated or treated for 6 hours with 5 ug/ml of tunicamycin or 20 uM of MG-132 and were analyzed for the presence of XBP-1 using XBP-1 antibody. The two forms of XBP-1 were distinguished by their molecular weight.
In the presence of proteasome inhibitors, unspliced XBP-1 protein accumulates in the cell and is present at higher levels than the spliced protein. Lysates from Mm. 1S cells were untreated or treated for 1, 4, or 8 hours with 20 uM of PS-341 and were analyzed by western blotting with anti-XBP-1 antibody. Because unspliced, but not spliced XBP-1 is stabilized, the ratio of unspliced to spliced XBP-1 increases in cells treated with proteasome inhibitors.
On the technique in general: Immunoblotting shows a protein as a band on a membrane.

Experiment [1] has as its system XBP-1u and XBP-1s proteins. Description: XBP-1u and XBP-1s protein levels in J558 cells (Western blot). As to conditions: J558 cells, 16 hrs. As for the experimental part: (§1) (A) BiP and CHOP induction was examined by northern blot analysis after treating NIH3T3 or J558 myeloma cells with either MG-132 (20 μM), Tm (10 μg/ml) or both. Cells were pretreated with MG-132 for 1 hr and then further treated with Tm for 4 hrs. Ethidium bromide staining of the gel is shown at the bottom. (B) Inhibition of caspase-12 processing by proteasome inhibitors. Processing of full-length caspase-12 was examined by Western blotting in J558 myeloma cells treated with thapsigargin (1 μM) or PIs (20 μM) during the indicated time periods. (C) Alteration in the ratio of XBP-1 protein species in J558 cells were treated with increasing amounts of MG-132 for 16 hrs. Cells undergoing apoptosis were counted by Annexin V staining. (D) Time course of the XBP-1s to XBP-1u shift. Cells were treated with MG-132 (1 μM) for the indicated times and XBP-1u and spliced protein levels and cell death determined. (E) Alteration in the ratio of XBP-1 species in the MM.1s human myeloma line. Cells were treated with PS-341 (8 nM) in a time course analysis and XBP-1 protein species quantified.
Cells were lysed in RIPA buffer (50 mM Tris pH 7.4, 150 mM NaCl, 1 mM EDTA, 1% Triton X-100, 1% sodium deoxycholate, 0.1% SDS) and lysates subjected to SDS-PAGE and transferred to Hybond P membrane (Amersham-Pharmacia, Piscataway, N.J.). […] HeLa cells were cotransfected with XBP-1u and His-tagged ubiquitin expression plasmids (pMT 107, D. Bohmann, EMBL, Germany) by using the Lipofectamine-2000 reagent (Invitrogen, Carlsbad, Calif.). […] Degradation rates of XBP-1u and XBP-1s proteins were determined by pulse labeling J558 cells with ^35S Met/Cys for 1 hr and chasing for the indicated times.

Another experiment deals with XBP-1s and XBP-1u. Description: Ratio of XBP-1 species in MM.1s line and primary MM cells. To be noted: human MM cell line MM.1s and primary MM cells from patient bone marrow. As for the experimental part: as §1
Another experiment has as its system J558 myeloma cells. Description: Apoptosis of J558 myeloma cells (Annexin V staining). To be noted: agent alone. As for the experimental part:
as §1
(A) Synergistic effect of Tm and MG-132 on apoptosis. Annexin V positive cells were counted after treating J558 cells for 18 hrs with suboptimal concentrations of Tm and MG-132 as indicated. (B) J558-iXBP cells were generated by retroviral transduction of J558 cells with the U6 promoter based XBP-1 RNAi vector. (C) XBP-1 dependent gene expression in J558 cells that express control GFP, dn-XBP or iXBP-1 treated with Tm. Generation of dn-XBP-1 J558 cells by infection with a retrovirus containing dn-XBP cDNA inserted into the GFP-RV vector (N. N. lwakoshi et al., Nature Immunology 4, 321-329 (2003)). ERdj4, p58^IPK, BiP and CHOP gene expression were examined by Northern blot analysis. (D) Increased apoptosis in iXBP-1 and dn-XBP-1 expressing J558 cells. Cells were treated with the indicated amounts of Tm for 48 hrs and dead cells counted after Annexin V staining.
Cells were stained with annexin V-PE (BD PharMingen, San Jose, Calif.) as recommended and analyzed on a FACScan flow cytometer (Becton Dickinson, San Jose, Calif.).

In experiment [2] the test system is IRE1α-mediated XBP-1 mRNA splicing. Description: XBP-1 mRNA level and splicing in J558 cells (Northern blot, RT-PCR). To be noted: J558, Tm 4 hrs; MG-132 10 μM, PS-341 10 μM, ZL3VS 50 μM, AdaAhxL3VS 50 μM. As for the experimental part: (A) XBP-1 mRNA levels in ER stressed J558 cells treated with Tm for 4 hrs in the absence or presence of MG-132. Cells were pretreated with MG-132 for 1 hr before adding Tm. XBP-1 mRNA levels were determined by Northern blot analysis. […] (C) Effect of a panel of PIs on XBP-1 splicing. Cells were treated with Tm for 4 hrs in the absence or presence of MG-132 (10 μM), PS-341 (10 μM), Lactacystin (10 μM), ZL3VS (50 μM) or AdaAhxL3VS (50 μM), and XBP-1 mRNA splicing measured by RT-PCR analysis. (D) IRE-1α phosphorylation in NIH3T3 cells were treated with Tm as indicated after 2 hrs of pretreatment with MG-132 (10 μM).
Total RNA was prepared by using Trizol reagent, electrophoresed on 1.2% agarose, 6% formaldehyde gels and then transferred onto Genescreen Plus membrane, (NEN, Boston, Mass.). […] Probes for ERdj4 and p58^IPK were generated from cDNA excised from EST clones (ATCC, Manassas, Va.) using appropriate restriction enzymes (ERdj4, IMAGE: 1920927; p58^IPK, IMAGE:2646147).

With `CC(C)C[C@H](NC(=O)[C@H](Cc1ccccc1)NC(=O)c1cnccn1)B(O)O` [PS-341], in the experiment with XBP-1 protein, the “amount of unspliced XBP-1 protein” value is on record as “dramatic increase in the amount of unspliced XBP-1 protein” and the “levels of active spliced XBP-1 protein” value was “concomitant decrease in levels of the active spliced XBP-1 protein”. In addition, the “XBP-1u accumulation and XBP-1s decrease” value in experiment [1] is “striking accumulation of XBP-1 u and a concomitant decrease in XBP-1s proteins”. Besides, in the experiment with XBP-1s and XBP-1u, the “shift in the ratio of XBP-1s to XBP-1u” value is “induced the same marked shift in the ratio of XBP-1s to XBP-1u”. Moreover, the “apoptosis in J558 cells” value with J558 myeloma cells is on record as “induced apoptosis in J558 cells”. For the same molecule, the “effect on Tm-induced XBP-1 mRNA splicing” value in experiment [2] was “suppressed XBP-1 mRNA splicing as efficiently as MG-132”.

For the origin of these results see patent US20040170622A1, “Methods and compositions for modulating XBP-1 activity” (President and Fellows of Harvard College, priority 2002, published 2004).
